The values below come from patent publication US4760089A, “Irreversible dopamine-β-hydroxylase inhibitors” (SmithKline Beckman Corporation, priority 1985, dated 1988).

The test system of data set [1] is peripheral dopamine (DA) and norepinephrine (NE) levels. Description: In vivo effect on peripheral dopamine and norepinephrine levels. More on the design: species or system spontaneously hypertensive rats. To be noted: twice; for DA / NE: per gram of tissue, about 2 hours after second dose. The procedure: One of the 2-cyano-2-phenethylamine compounds also was tested for its effect in vivo on peripheral dopamine (DA) and norepinephrine (NE) levels substantially by the procedure of DaPrada and Zurcher, Life Sciences, 19, 1161, (1976). Groups of five spontaneously hypertensive rats were dosed orally, twice, the second dose approximately 18 hours after the first, and were sacrificed about 2 hours after the second dose.

For data set [2], the target named is T1, dopamine-β-hydroxylase (DBH) (Bos taurus, UniProt P15101).
T1 sequence (P15101 1-610): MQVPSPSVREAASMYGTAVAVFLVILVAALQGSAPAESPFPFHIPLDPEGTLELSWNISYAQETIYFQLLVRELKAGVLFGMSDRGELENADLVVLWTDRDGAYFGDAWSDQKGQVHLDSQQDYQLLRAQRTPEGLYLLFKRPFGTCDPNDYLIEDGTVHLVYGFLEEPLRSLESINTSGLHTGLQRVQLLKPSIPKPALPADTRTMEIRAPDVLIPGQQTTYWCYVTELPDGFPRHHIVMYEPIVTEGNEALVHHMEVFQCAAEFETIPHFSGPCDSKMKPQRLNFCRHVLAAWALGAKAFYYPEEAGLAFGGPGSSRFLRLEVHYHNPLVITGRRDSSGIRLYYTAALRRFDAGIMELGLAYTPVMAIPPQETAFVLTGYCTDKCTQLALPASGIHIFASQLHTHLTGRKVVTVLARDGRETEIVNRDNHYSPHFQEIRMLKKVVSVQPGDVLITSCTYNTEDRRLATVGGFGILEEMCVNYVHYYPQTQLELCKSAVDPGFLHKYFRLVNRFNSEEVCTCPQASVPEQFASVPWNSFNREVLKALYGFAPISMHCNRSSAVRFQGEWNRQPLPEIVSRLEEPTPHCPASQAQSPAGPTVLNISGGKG
In words: DBH enzyme inhibition kinetics, conversion of tyramine to octopamine. To be noted: several inhibitor concentrations. The data set is classed as biochemical. As for the experimental part: (§1) Presently invented also are methods of producing DBH inhibition in mammals, including humans, by administering an effective amount of 2-cyano-2-phenethylamine or a 2-cyano-2-(hydroxyphenyl)ethylamine compound. […] DBH activity was assayed by a standard procedure for measuring the conversion of tyramine to octopamine in the presence of DBH. J. J. Pisano, et al., Biochim. Biophy. Acta, 43, 566-68 (1960). Octopamine was assayed following sodium periodate oxidation to p-hydroxybenzaldehyde by measuring spectrophotometric absorbance at 330 nm.
Further, the changing apparent rate constant and the unchanging maxiumum reaction rate indicate that the compounds useful in the presently invented method initially are competitive blockers of substrate-enzyme interactions.

Data set [3] concerns the target T1, dopamine-β-hydroxylase (DBH). Description: Dialysis of enzyme-inhibitor complexes to test reversibility of DBH inhibition. The data set is classed as biochemical. To be noted: for activity at 1000 µM: tyramine alone = 100%; for Amount of Product Formed Pre-Dialysis: approx. 3 hour incubation with DBH; for Amount of Product Formed Post-Dialysis: dialyzed overnight, pH 5.5 acetate buffer. The procedure: as §1
Dialysis of enzyme-inhibitor complexes was selected as the approach for testing the reversibility of the inhibition produced by these compounds. A known, reversible DBH inhibitor, fusaric acid, was utilized as a reference standard. Following approximate 3 hour incubation of DBH with one of the inhibitors, the rate of enzymatic conversion of tyramine to octopamine was measured by the standard procedure used in the enzyme kinetic analyses. Thereafter, the enzyme previously incubated with inhibitor was placed in a standard dialysis bag and dialyzed overnight against four changes of pH 5.5 acetate buffer. Following dialysis, the rate of enzymatic conversion of tyramine to octopamine again was measured.

The subject of data set [4] is spontaneously hypertensive rats. Description: Mean arterial blood pressure in spontaneously hypertensive rats. The data set is classed as in vivo. The settings on record: 100 mg/kg intraperitoneally. As for the experimental part:
Further, spontaneously hypertensive rats were dosed with a suspension or solution of 2-cyano-2-phenethylamine hydrochloride at a dose of 100 mg/kg intraperitoneally, and mean arterial blood pressure was monitored for 260 minutes using indwelling cannulae positioned in the tail arteries. Approximate thirty percent reductions in blood pressure were observed thirty to forty minutes following administration of this compound. At 260 minutes after administration of this compound, blood pressure remained reduced by approximately twenty percent when compared to vehicle-treated controls.

The conditions of data set [5]: Teresawa et al., Japan. Cir. J. 35, 339 (1971); cited from earlier work.
A further data set has as its system DBH. To be noted: Runti et al., Il Farmaco Ed. Sci. 36, 260 (1980); cited from earlier work.
Where [6] appears, read: Tyramine 10^-2 M and inhibitor 10^-3 M.
Where [7] appears, read: Tyramine 10^-2 M and Fusaric Acid 10^-4 M.

Counter-ions that a name gives are not always drawn. Like-named read-outs stand apart in the source and are kept apart here.

With `N#CC(CN)c1ccccc1` (stereo not shown) [2-cyano-2-phenethylamine hydrochloride], in data set [1] (Experiment 1, 100 mg/kg orally), the “DA/NE Ratio” value worked out at 0.0716 ± 0.004, the DA amounted to 0.571 µg/g and the NE was found to be 7.96 µg/g. In addition, in data set [1] (Experiment 2, 100 mg/kg orally), the “DA/NE Ratio” value is reported as 0.0628 ± 0.0013, the DA worked out at 0.408 µg/g and the NE is 6.47 µg/g. The “DBH activity versus inhibitor concentration (FIG. 1, double-reciprocal plot)” value in data set [2] is listed as “reductions in DBH activity were related directly to increasing 2-cyano-2-phenethylamine hydrochloride concentrations”. For the same molecule, the activity at 1000 µM in data set [3] (3 h, Tyramine 10^-2 M and inhibitor 10^-3 M, read-out: DBH Activity Pre-Dialysis) came out at 8%. Also, in data set [3] (setting [6]), the “Amount of Product Formed Pre-Dialysis” value is given as 15.7 nM and the “Amount of Product Formed Post-Dialysis” value stood at 10.5 nM. Moreover, the activity at 1000 µM in data set [3] (Tyramine 10^-2 M and inhibitor 10^-3 M, read-out: DBH Activity Post-Dialysis) was determined as 5.5%. Moreover, in data set [4] (at 260 minutes after administration), the “reduction in mean arterial blood pressure compared to vehicle-treated controls” value is given as “approximately twenty”. The “reduction in mean arterial blood pressure” value in data set [4] (thirty to forty minutes following administration) is reported as “thirty”.
In the case of `CCCCc1ccc(C(=O)O)nc1` [Fusaric Acid, reference compound], the toxic effect entry in data set [5] is given as “hepatotoxic”. Moreover, in data set [1] (Experiment 1, 50 mg/kg orally), the “DA/NE Ratio” value was found to be 0.0994 ± 0.007, the DA turned out to be 0.819 µg/g and the NE turned out to be 8.31 µg/g. Also, in data set [1] (Experiment 2, 50 mg/kg orally), the “DA/NE Ratio” value is 0.112 ± 0.0055, the DA amounted to 0.615 µg/g and the NE amounted to 5.82 µg/g. The activity at 100 µM in data set [3] (3 h, read-out: DBH Activity Pre-Dialysis) worked out at 2%. Besides, in data set [3] (setting [7]), the “Amount of Product Formed Pre-Dialysis” value came to 4.0 nM and the “Amount of Product Formed Post-Dialysis” value stood at 169.0 nM. Besides, in data set [3] (read-out: DBH Activity Post-Dialysis), the activity at 100 µM was determined as 89.2%.
As to phenylpicolinic acid, the “DBH inhibitory activity relative to fusaric acid” value in the data set with DBH is “twice the inhibitory activity of fusaric acid”.
